Measurements as given in publication PMC9797307, “Measurement of Pharmacokinetics and Tissue Distribution of Four Compounds from Nauclea officinalis in Rat Plasma and Tissues through HPLC-MS/MS” (Journal of Analytical Methods in Chemistry, 2022).

Test: Stability of QC samples in rat plasma and tissue homogenates under different storage conditions
Format: in vitro ADME
Conditions: in % (unit assumed)

- Accuracy, Ambient temperature for 4 h (Brain, 5 ng/mL): 106.35 ± 11.82
- Accuracy, Autosampler at 4°C for 8 h (Brain, 5 ng/mL): 109.83 ± 6.05
- Accuracy, Three freeze-thraw cycles (Brain, 5 ng/mL): 98.92 ± 10.65
- Accuracy, −80°C for 30 days (Brain, 5 ng/mL): 104.10 ± 10.88
- Accuracy, Ambient temperature for 4 h (Brain, 8 ng/mL): 88.87 ± 10.43
- Accuracy, Autosampler at 4°C for 8 h (Brain, 8 ng/mL): 90.65 ± 6.37
- Accuracy, Three freeze-thraw cycles (Brain, 8 ng/mL): 89.95 ± 9.23
- Accuracy, −80°C for 30 days (Brain, 8 ng/mL): 88.82 ± 10.57
- Accuracy, Ambient temperature for 4 h (Brain, 140 ng/mL): 88.33 ± 6.74
- Accuracy, Autosampler at 4°C for 8 h (Brain, 140 ng/mL): 87.92 ± 8.15
- Accuracy, Three freeze-thraw cycles (Brain, 140 ng/mL): 87.20 ± 4.98
- Accuracy, −80°C for 30 days (Brain, 140 ng/mL): 87.93 ± 5.81
- Accuracy, Ambient temperature for 4 h (Brain, 2400 ng/mL): 99.43 ± 6.38
- Accuracy, Autosampler at 4°C for 8 h (Brain, 2400 ng/mL): 112.67 ± 6.62
- Accuracy, Three freeze-thraw cycles (Brain, 2400 ng/mL): 109.67 ± 6.44
- Accuracy, −80°C for 30 days (Brain, 2400 ng/mL): 109.00 ± 5.22
- Accuracy, Ambient temperature for 4 h (Heart, 5 ng/mL): 111.97 ± 11.63
- Accuracy, Autosampler at 4°C for 8 h (Heart, 5 ng/mL): 100.78 ± 9.63
- Accuracy, Three freeze-thraw cycles (Heart, 5 ng/mL): 107.98 ± 9.45
- Accuracy, −80°C for 30 days (Heart, 5 ng/mL): 107.42 ± 10.24
- Accuracy, Ambient temperature for 4 h (Heart, 8 ng/mL): 110.50 ± 4.42
- Accuracy, Autosampler at 4°C for 8 h (Heart, 8 ng/mL): 107.25 ± 9.25
- Accuracy, Three freeze-thraw cycles (Heart, 8 ng/mL): 109.08 ± 8.25
- Accuracy, −80°C for 30 days (Heart, 8 ng/mL): 110.87 ± 9.04
- Accuracy, Ambient temperature for 4 h (Heart, 140 ng/mL): 102.78 ± 6.89
- Accuracy, Autosampler at 4°C for 8 h (Heart, 140 ng/mL): 104.88 ± 3.80
- Accuracy, Three freeze-thraw cycles (Heart, 140 ng/mL): 100.40 ± 9.13
- Accuracy, −80°C for 30 days (Heart, 140 ng/mL): 98.28 ± 5.70
- Accuracy, Ambient temperature for 4 h (Heart, 2400 ng/mL): 112.33 ± 10.41
- Accuracy, Autosampler at 4°C for 8 h (Heart, 2400 ng/mL): 111.50 ± 5.68
- Accuracy, Three freeze-thraw cycles (Heart, 2400 ng/mL): 112.33 ± 5.72
- Accuracy, −80°C for 30 days (Heart, 2400 ng/mL): 110.50 ± 4.81
- Accuracy, Ambient temperature for 4 h (Kidney, 5 ng/mL): 109.33 ± 7.55
- Accuracy, Autosampler at 4°C for 8 h (Kidney, 5 ng/mL): 106.08 ± 8.96
- Accuracy, Three freeze-thraw cycles (Kidney, 5 ng/mL): 98.92 ± 9.91
- Accuracy, −80°C for 30 days (Kidney, 5 ng/mL): 97.18 ± 10.46
- Accuracy, Ambient temperature for 4 h (Kidney, 8 ng/mL): 99.10 ± 4.24
- Accuracy, Autosampler at 4°C for 8 h (Kidney, 8 ng/mL): 97.38 ± 7.31
- Accuracy, Three freeze-thraw cycles (Kidney, 8 ng/mL): 91.10 ± 9.20
- Accuracy, −80°C for 30 days (Kidney, 8 ng/mL): 94.77 ± 7.62
- Accuracy, Ambient temperature for 4 h (Kidney, 140 ng/mL): 96.08 ± 7.36
- Accuracy, Autosampler at 4°C for 8 h (Kidney, 140 ng/mL): 95.43 ± 7.99
- Accuracy, Three freeze-thraw cycles (Kidney, 140 ng/mL): 101.10 ± 4.98
- Accuracy, −80°C for 30 days (Kidney, 140 ng/mL): 100.25 ± 8.25
- Accuracy, Ambient temperature for 4 h (Kidney, 2400 ng/mL): 108.00 ± 5.62
- Accuracy, Autosampler at 4°C for 8 h (Kidney, 2400 ng/mL): 103.87 ± 4.68
- Accuracy, Three freeze-thraw cycles (Kidney, 2400 ng/mL): 104.57 ± 6.09
- Accuracy, −80°C for 30 days (Kidney, 2400 ng/mL): 102.30 ± 5.90
- Accuracy, Ambient temperature for 4 h (Liver, 5 ng/mL): 101.78 ± 11.83
- Accuracy, Autosampler at 4°C for 8 h (Liver, 5 ng/mL): 107.70 ± 5.36
- Accuracy, Three freeze-thraw cycles (Liver, 5 ng/mL): 98.32 ± 6.66
- Accuracy, −80°C for 30 days (Liver, 5 ng/mL): 98.38 ± 12.07
- Accuracy, Ambient temperature for 4 h (Liver, 8 ng/mL): 87.60 ± 5.90
- Accuracy, Autosampler at 4°C for 8 h (Liver, 8 ng/mL): 86.47 ± 4.52
- Accuracy, Three freeze-thraw cycles (Liver, 8 ng/mL): 90.60 ± 4.91
- Accuracy, −80°C for 30 days (Liver, 8 ng/mL): 86.00 ± 8.60
- Accuracy, Ambient temperature for 4 h (Liver, 140 ng/mL): 88.57 ± 2.44
- Accuracy, Autosampler at 4°C for 8 h (Liver, 140 ng/mL): 95.00 ± 4.15
- Accuracy, Three freeze-thraw cycles (Liver, 140 ng/mL): 96.28 ± 4.36
- Accuracy, −80°C for 30 days (Liver, 140 ng/mL): 97.32 ± 7.17
- Accuracy, Ambient temperature for 4 h (Liver, 2400 ng/mL): 98.93 ± 3.81
- Accuracy, Autosampler at 4°C for 8 h (Liver, 2400 ng/mL): 91.37 ± 2.51
- Accuracy, Three freeze-thraw cycles (Liver, 2400 ng/mL): 89.35 ± 3.70
- Accuracy, −80°C for 30 days (Liver, 2400 ng/mL): 89.97 ± 7.32
- Accuracy, Ambient temperature for 4 h (Lung, 5 ng/mL): 109.50 ± 11.47
- Accuracy, Autosampler at 4°C for 8 h (Lung, 5 ng/mL): 100.40 ± 10.26
- Accuracy, Three freeze-thraw cycles (Lung, 5 ng/mL): 101.05 ± 5.33
- Accuracy, −80°C for 30 days (Lung, 5 ng/mL): 95.98 ± 10.47
- Accuracy, Ambient temperature for 4 h (Lung, 8 ng/mL): 94.73 ± 8.92
- Accuracy, Autosampler at 4°C for 8 h (Lung, 8 ng/mL): 91.40 ± 9.71
- Accuracy, Three freeze-thraw cycles (Lung, 8 ng/mL): 101.90 ± 10.45
- Accuracy, −80°C for 30 days (Lung, 8 ng/mL): 99.03 ± 10.49
- Accuracy, Ambient temperature for 4 h (Lung, 140 ng/mL): 102.38 ± 4.12
- Accuracy, Autosampler at 4°C for 8 h (Lung, 140 ng/mL): 94.45 ± 5.92
- Accuracy, Three freeze-thraw cycles (Lung, 140 ng/mL): 93.75 ± 8.53
- Accuracy, −80°C for 30 days (Lung, 140 ng/mL): 92.58 ± 3.60
- Accuracy, Ambient temperature for 4 h (Lung, 2400 ng/mL): 111.37 ± 9.27
- Accuracy, Autosampler at 4°C for 8 h (Lung, 2400 ng/mL): 111.85 ± 9.53
- Accuracy, −80°C for 30 days (Lung, 2400 ng/mL): 111.67 ± 3.39
- Accuracy, Ambient temperature for 4 h (Plasma, 5 ng/mL): 101.95 ± 10.33
- Accuracy, Autosampler at 4°C for 8 h (Plasma, 5 ng/mL): 106.67 ± 10.88
- Accuracy, Three freeze-thraw cycles (Plasma, 5 ng/mL): 91.87 ± 8.63
- Accuracy, −80°C for 30 days (Plasma, 5 ng/mL): 109.57 ± 12.66
- Accuracy, Ambient temperature for 4 h (Plasma, 8 ng/mL): 108.88 ± 1.87
- Accuracy, Autosampler at 4°C for 8 h (Plasma, 8 ng/mL): 105.01 ± 6.32
- Accuracy, Three freeze-thraw cycles (Plasma, 8 ng/mL): 105.88 ± 1.87
- Accuracy, −80°C for 30 days (Plasma, 8 ng/mL): 113.33 ± 5.32
- Accuracy, Ambient temperature for 4 h (Plasma, 140 ng/mL): 87.67 ± 9.20
- Accuracy, Autosampler at 4°C for 8 h (Plasma, 140 ng/mL): 87.88 ± 4.14
- Accuracy, Three freeze-thraw cycles (Plasma, 140 ng/mL): 111.88 ± 1.87
- Accuracy, −80°C for 30 days (Plasma, 140 ng/mL): 111.57 ± 9.60
- Accuracy, Ambient temperature for 4 h (Plasma, 2400 ng/mL): 88.93 ± 6.01
- Accuracy, Autosampler at 4°C for 8 h (Plasma, 2400 ng/mL): 89.25 ± 7.58
- Accuracy, Three freeze-thraw cycles (Plasma, 2400 ng/mL): 89.17 ± 7.49
- Accuracy, −80°C for 30 days (Plasma, 2400 ng/mL): 113.83 ± 7.14
- Accuracy, Ambient temperature for 4 h (Small intestine, 5 ng/mL): 111.90 ± 12.07
- Accuracy, Autosampler at 4°C for 8 h (Small intestine, 5 ng/mL): 111.67 ± 8.14
- Accuracy, Three freeze-thraw cycles (Small intestine, 5 ng/mL): 111.17 ± 8.33
- Accuracy, −80°C for 30 days (Small intestine, 5 ng/mL): 112.67 ± 8.78
- Accuracy, Ambient temperature for 4 h (Small intestine, 8 ng/mL): 103.33 ± 3.39
- Accuracy, Autosampler at 4°C for 8 h (Small intestine, 8 ng/mL): 100.03 ± 11.46
- Accuracy, Three freeze-thraw cycles (Small intestine, 8 ng/mL): 100.60 ± 10.24
- Accuracy, −80°C for 30 days (Small intestine, 8 ng/mL): 104.25 ± 9.49
- Accuracy, Ambient temperature for 4 h (Small intestine, 140 ng/mL): 88.60 ± 9.48
- Accuracy, Autosampler at 4°C for 8 h (Small intestine, 140 ng/mL): 89.80 ± 8.30
- Accuracy, Three freeze-thraw cycles (Small intestine, 140 ng/mL): 87.88 ± 5.57
- Accuracy, −80°C for 30 days (Small intestine, 140 ng/mL): 90.17 ± 7.26
- Accuracy, Ambient temperature for 4 h (Small intestine, 2400 ng/mL): 107.48 ± 8.23
- Accuracy, Autosampler at 4°C for 8 h (Small intestine, 2400 ng/mL): 103.75 ± 6.68
- Accuracy, Three freeze-thraw cycles (Small intestine, 2400 ng/mL): 108.43 ± 8.65
- Accuracy, −80°C for 30 days (Small intestine, 2400 ng/mL): 102.32 ± 8.65
- Accuracy, Ambient temperature for 4 h (Spleen, 5 ng/mL): 110.33 ± 8.71
- Accuracy, Autosampler at 4°C for 8 h (Spleen, 5 ng/mL): 112.92 ± 8.72
- Accuracy, Three freeze-thraw cycles (Spleen, 5 ng/mL): 110.67 ± 8.57
- Accuracy, −80°C for 30 days (Spleen, 5 ng/mL): 109.68 ± 12.57
- Accuracy, Ambient temperature for 4 h (Spleen, 8 ng/mL): 99.28 ± 13.31
- Accuracy, Autosampler at 4°C for 8 h (Spleen, 8 ng/mL): 93.42 ± 8.00
- Accuracy, Three freeze-thraw cycles (Spleen, 8 ng/mL): 96.13 ± 11.98
- Accuracy, −80°C for 30 days (Spleen, 8 ng/mL): 101.90 ± 10.25
- Accuracy, Ambient temperature for 4 h (Spleen, 140 ng/mL): 93.13 ± 6.10
- Accuracy, Autosampler at 4°C for 8 h (Spleen, 140 ng/mL): 95.27 ± 7.08
- Accuracy, Three freeze-thraw cycles (Spleen, 140 ng/mL): 89.18 ± 8.23
- Accuracy, −80°C for 30 days (Spleen, 140 ng/mL): 92.35 ± 2.70
- Accuracy, Ambient temperature for 4 h (Spleen, 2400 ng/mL): 103.33 ± 8.37
- Accuracy, Autosampler at 4°C for 8 h (Spleen, 2400 ng/mL): 105.67 ± 8.50
- Accuracy, Three freeze-thraw cycles (Spleen, 2400 ng/mL): 107.73 ± 8.10
- Accuracy, −80°C for 30 days (Spleen, 2400 ng/mL): 109.83 ± 4.96
- Accuracy, Ambient temperature for 4 h (Stomach, 5 ng/mL): 111.00 ± 7.90
- Accuracy, Autosampler at 4°C for 8 h (Stomach, 5 ng/mL): 112.17 ± 7.25
- Accuracy, Three freeze-thraw cycles (Stomach, 5 ng/mL): 113.12 ± 9.97
- Accuracy, −80°C for 30 days (Stomach, 5 ng/mL): 113.83 ± 2.99
- Accuracy, Ambient temperature for 4 h (Stomach, 8 ng/mL): 107.32 ± 12.96
- Accuracy, Autosampler at 4°C for 8 h (Stomach, 8 ng/mL): 98.37 ± 10.75
- Accuracy, Three freeze-thraw cycles (Stomach, 8 ng/mL): 105.90 ± 9.13
- Accuracy, −80°C for 30 days (Stomach, 8 ng/mL): 103.55 ± 9.49
- Accuracy, Ambient temperature for 4 h (Stomach, 140 ng/mL): 88.15 ± 7.91
- Accuracy, Autosampler at 4°C for 8 h (Stomach, 140 ng/mL): 86.38 ± 8.38
- Accuracy, Three freeze-thraw cycles (Stomach, 140 ng/mL): 87.12 ± 5.24
- Accuracy, −80°C for 30 days (Stomach, 140 ng/mL): 88.28 ± 6.31
- Accuracy, Ambient temperature for 4 h (Stomach, 2400 ng/mL): 100.53 ± 7.29
- Accuracy, Autosampler at 4°C for 8 h (Stomach, 2400 ng/mL): 99.52 ± 5.85
- Accuracy, Three freeze-thraw cycles (Stomach, 2400 ng/mL): 104.90 ± 5.53
- Accuracy, −80°C for 30 days (Stomach, 2400 ng/mL): 102.32 ± 8.22
Compound: C/C=C1/COC(=O)[C@H]2C(=O)N3CCc4c([nH]c5ccccc45)[C@@H]3C[C@@H]12 [Naucleactonin C]
